The text below walks through data of ChEMBL document CHEMBL5465560, “Selectivity Literature for EUbOPEN Chemogenomic Library” (2024).

Assay [1] deals with Ephrin type-A receptor 7 (Homo sapiens) (UniProt Q15375). The assay can be described thus: Selectivity interaction (KinomeScan (DiscoverX)) EUB0001619a EPHA7. The conditions noted are these: at 1 µM.
The target in assay [2] is Mitogen-activated protein kinase 14 (Homo sapiens, UniProt Q16539). The conditions noted are these: at 10 µM.
Assay [3] addresses T1, Mitogen-activated protein kinase 12 (Homo sapiens) (UniProt P53778).
T1 sequence (whole entry): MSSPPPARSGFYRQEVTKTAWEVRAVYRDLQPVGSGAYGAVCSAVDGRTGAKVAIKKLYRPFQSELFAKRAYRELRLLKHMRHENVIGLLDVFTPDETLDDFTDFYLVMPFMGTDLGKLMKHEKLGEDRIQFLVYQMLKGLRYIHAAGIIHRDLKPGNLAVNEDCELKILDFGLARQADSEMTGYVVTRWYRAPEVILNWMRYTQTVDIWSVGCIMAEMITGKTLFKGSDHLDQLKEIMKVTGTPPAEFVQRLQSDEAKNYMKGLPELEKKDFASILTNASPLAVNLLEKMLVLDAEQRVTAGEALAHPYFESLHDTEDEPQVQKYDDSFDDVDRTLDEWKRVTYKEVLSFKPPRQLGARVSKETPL
As to the kind of experiment: Selectivity interaction (Kinase panel (Invitrogen)) EUB0000639a MAPK12. Particulars: at 200 nM.

For assay [4], the target named is T2, MAP/microtubule affinity-regulating kinase 4 (Homo sapiens) (UniProt Q96L34).
T2 sequence (whole entry): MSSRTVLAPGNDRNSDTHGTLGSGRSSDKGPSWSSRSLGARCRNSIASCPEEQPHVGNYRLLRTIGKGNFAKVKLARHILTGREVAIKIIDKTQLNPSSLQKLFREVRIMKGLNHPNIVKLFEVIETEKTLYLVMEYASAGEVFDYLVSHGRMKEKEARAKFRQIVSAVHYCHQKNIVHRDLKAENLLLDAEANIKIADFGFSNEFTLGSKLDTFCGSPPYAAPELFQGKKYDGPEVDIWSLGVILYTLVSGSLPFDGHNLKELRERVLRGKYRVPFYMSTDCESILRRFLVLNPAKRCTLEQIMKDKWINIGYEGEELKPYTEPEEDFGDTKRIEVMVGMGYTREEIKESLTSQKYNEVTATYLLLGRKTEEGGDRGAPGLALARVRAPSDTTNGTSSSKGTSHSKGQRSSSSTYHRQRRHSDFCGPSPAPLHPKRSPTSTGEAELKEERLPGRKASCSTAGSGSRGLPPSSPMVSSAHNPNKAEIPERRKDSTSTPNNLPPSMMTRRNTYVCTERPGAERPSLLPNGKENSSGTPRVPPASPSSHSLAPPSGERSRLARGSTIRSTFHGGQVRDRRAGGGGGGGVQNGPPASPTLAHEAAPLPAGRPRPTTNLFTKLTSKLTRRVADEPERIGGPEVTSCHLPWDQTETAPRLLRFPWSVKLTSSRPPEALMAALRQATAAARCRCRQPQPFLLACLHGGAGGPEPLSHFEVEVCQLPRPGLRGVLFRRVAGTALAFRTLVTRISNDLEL
As to the kind of experiment: Selectivity interaction (ActivX KiNativ screen (kinase selectivity in THP-1 cell lysates)) EUB0000639a MARK4. The assay is classed as subcellular. The conditions noted are these: lysate, at 0.04 µM.

The target of assay [5] is T3, Mitogen-activated protein kinase 13 (Homo sapiens) (UniProt O15264).
T3 sequence (whole entry): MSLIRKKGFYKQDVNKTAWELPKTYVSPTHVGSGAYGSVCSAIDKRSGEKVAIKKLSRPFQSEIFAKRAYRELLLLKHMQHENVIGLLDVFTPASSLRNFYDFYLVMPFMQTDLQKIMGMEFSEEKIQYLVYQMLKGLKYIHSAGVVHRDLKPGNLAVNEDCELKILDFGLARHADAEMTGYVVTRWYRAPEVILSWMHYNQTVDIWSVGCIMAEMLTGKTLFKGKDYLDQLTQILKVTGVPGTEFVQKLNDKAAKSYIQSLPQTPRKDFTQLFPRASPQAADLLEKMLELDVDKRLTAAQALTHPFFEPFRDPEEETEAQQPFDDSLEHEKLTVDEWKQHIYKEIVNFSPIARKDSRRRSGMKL
As to the kind of experiment: Selectivity interaction (Ambit KINOMEscan and KiNATiv profiling in Jurkat cells) EUB0000090b MAPK13. Format: cell-based. Particulars: at 1 µM.

The target of assay [6] is T4, Mitogen-activated protein kinase kinase kinase 13 (Homo sapiens) (UniProt O43283).
T4 sequence (whole entry): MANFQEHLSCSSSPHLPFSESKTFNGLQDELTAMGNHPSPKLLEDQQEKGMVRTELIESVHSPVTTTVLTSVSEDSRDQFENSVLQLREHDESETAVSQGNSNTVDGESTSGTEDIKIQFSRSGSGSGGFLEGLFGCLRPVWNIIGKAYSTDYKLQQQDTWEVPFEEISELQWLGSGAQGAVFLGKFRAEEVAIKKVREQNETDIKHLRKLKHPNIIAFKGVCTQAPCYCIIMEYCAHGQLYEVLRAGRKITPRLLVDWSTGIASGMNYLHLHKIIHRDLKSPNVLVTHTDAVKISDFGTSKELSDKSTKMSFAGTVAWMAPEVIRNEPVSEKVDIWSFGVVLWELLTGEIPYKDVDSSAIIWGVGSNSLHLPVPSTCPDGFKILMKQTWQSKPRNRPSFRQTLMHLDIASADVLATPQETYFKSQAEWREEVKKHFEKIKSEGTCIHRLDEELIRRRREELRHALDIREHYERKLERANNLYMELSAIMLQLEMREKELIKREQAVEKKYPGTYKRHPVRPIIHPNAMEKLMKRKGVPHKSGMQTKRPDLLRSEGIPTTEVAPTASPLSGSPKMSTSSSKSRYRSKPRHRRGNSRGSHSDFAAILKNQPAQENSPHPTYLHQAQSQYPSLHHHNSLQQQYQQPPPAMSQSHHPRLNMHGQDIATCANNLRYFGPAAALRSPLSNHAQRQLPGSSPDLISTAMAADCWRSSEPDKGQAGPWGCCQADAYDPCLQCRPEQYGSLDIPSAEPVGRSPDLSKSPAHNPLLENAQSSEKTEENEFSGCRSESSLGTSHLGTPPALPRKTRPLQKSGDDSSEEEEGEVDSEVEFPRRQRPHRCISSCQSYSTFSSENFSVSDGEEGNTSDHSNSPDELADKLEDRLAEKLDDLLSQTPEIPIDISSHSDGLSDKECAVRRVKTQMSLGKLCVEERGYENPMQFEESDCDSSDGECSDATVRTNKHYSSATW
As to the kind of experiment: Selectivity interaction (KinomeScan (DiscoverX)) EUB0001049a MAP3K13. The conditions noted are these: at 1 µM.

The target in assay [7] is Phosphatidylinositol 4-phosphate 5-kinase type-1 gamma (Homo sapiens) (UniProt O60331). The assay can be described thus: Selectivity interaction (KinomeScan (DiscoverX)) EUB0000655a PIP5K1C. Particulars: at 10 µM.
Assay [8] concerns the target Protein kinase C beta type (Homo sapiens, UniProt P05771). As to the kind of experiment: Selectivity interaction (Millipore kinase profiler) EUB0000124b PRKCB. The conditions noted are these: at 10 µM.

Mitogen-activated protein kinase 14, sequence (Q16539 whole entry): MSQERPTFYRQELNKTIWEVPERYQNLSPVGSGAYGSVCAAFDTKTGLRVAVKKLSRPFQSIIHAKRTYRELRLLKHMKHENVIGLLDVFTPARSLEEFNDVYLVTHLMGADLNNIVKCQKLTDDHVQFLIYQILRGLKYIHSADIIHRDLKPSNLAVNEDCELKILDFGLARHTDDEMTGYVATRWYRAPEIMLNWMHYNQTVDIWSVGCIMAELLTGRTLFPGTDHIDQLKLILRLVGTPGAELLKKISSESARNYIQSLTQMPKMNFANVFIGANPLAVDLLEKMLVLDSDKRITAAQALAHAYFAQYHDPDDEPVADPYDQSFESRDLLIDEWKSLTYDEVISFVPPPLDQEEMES
Ephrin type-A receptor 7 (Homo sapiens), sequence (Q15375 28-998 limits assumed): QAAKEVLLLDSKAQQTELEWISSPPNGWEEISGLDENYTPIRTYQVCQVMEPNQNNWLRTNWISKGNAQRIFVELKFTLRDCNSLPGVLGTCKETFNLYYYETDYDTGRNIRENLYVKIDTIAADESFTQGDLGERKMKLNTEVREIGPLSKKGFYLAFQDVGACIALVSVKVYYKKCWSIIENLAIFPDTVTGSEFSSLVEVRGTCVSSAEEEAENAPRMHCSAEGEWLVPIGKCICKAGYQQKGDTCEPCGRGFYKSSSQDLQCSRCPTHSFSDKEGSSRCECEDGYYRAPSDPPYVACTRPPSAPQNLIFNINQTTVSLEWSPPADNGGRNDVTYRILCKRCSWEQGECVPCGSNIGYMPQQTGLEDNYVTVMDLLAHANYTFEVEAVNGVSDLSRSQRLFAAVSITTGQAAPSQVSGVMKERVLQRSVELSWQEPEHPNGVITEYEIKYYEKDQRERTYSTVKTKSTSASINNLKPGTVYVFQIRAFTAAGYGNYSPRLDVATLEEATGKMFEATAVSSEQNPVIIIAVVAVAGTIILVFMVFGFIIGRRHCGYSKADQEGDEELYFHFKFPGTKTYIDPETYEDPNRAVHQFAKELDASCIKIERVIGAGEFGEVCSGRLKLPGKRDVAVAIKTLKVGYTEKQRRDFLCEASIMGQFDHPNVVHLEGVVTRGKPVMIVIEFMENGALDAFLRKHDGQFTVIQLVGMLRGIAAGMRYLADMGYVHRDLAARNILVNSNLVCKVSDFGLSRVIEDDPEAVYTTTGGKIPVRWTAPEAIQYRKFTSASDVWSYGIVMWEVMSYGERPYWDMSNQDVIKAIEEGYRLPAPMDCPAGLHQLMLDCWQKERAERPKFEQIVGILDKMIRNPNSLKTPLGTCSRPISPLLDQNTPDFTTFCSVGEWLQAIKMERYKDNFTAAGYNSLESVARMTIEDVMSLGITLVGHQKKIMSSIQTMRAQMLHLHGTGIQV
Phosphatidylinositol 4-phosphate 5-kinase type-1 gamma (Homo sapiens), sequence (O60331 whole entry): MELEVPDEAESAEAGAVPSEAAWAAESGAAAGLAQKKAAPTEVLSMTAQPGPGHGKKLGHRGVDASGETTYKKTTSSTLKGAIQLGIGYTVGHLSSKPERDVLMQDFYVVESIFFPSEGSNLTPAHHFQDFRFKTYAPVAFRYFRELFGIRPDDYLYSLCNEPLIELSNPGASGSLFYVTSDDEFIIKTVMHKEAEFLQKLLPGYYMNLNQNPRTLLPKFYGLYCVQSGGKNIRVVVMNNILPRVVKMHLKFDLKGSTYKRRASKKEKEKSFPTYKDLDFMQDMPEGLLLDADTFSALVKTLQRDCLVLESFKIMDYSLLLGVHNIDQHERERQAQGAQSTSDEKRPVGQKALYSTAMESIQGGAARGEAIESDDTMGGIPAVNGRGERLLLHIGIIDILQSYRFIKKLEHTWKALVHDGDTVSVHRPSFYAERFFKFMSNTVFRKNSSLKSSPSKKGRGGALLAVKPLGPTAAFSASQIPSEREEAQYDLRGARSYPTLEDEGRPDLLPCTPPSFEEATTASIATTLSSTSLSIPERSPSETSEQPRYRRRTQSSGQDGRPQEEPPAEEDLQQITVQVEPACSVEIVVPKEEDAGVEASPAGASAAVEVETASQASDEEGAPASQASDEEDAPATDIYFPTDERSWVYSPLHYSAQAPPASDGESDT
Protein kinase C beta type, sequence (P05771 2-671 limits assumed): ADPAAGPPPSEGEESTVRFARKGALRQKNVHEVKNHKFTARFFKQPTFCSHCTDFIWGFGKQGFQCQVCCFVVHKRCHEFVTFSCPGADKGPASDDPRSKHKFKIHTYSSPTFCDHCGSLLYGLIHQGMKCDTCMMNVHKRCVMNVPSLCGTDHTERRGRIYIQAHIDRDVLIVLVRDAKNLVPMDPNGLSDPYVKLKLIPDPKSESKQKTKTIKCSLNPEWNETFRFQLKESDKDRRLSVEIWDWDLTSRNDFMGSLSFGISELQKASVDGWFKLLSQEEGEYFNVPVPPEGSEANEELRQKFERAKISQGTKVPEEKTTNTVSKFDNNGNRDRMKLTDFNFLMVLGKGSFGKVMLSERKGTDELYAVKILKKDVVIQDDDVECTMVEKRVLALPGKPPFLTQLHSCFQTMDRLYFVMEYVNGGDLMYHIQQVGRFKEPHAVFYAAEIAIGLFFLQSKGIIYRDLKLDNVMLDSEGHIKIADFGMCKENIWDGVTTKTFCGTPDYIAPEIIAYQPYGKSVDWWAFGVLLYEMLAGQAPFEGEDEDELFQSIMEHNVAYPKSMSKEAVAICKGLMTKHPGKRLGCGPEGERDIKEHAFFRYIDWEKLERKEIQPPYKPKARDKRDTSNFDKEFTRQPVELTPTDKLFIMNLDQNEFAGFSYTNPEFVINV

Consider `N#Cc1cccc(-c2c[nH]c3ncnc(N4CCOCC4)c23)c1`, for which the % of control in assay [1] was 100%.

`CCN(CC)CCCCNc1ncc2cc(-c3cc(OC)cc(OC)c3)c(NC(=O)NC(C)(C)C)nc2n1` gave a % of control in assay [2] of 100%.

In the case of `CC[C@@H]1[C@H](F)C(=O)N[C@@H]1COc1nccc2cc(C(N)=O)c(OC)cc12` [ZIMLOVISERTIB], the figures for the % of inhibition in assay [3] and in assay [4] were 7.12% and 15.9%, respectively.

In assay [5], `CN(C)C/C=C/C(=O)Nc1ccc(C(=O)N2CCCC(Nc3ncc(Cl)c(-c4c[nH]c5ccccc45)n3)C2)cc1` (stereo not drawn) yielded a % of control of 85%.

In assay [6], `COc1cc(Nc2nc(C)cc(-c3cnn4nc(OC)ccc34)n2)cc(C(F)(F)F)c1` had a % of control of 95%.

With `CN(C)CCOc1ccc(-c2nc(-c3ccncc3)c(-c3ccc4c(c3)CC/C4=N\O)[nH]2)cc1`, the % of control in assay [7] turned out to be 52%.

`CC(=O)Nc1cccc(-n2c(=O)n(C3CC3)c(=O)c3c(Nc4ccc(I)cc4F)n(C)c(=O)c(C)c32)c1` registered a % of control in assay [8] of 108%.
